Values joined by “and” are separate entries in the source; they are usually repeats but may differ in a detail not shown here. Equal entries are not always repeated. Toxic doses and inconclusive results are not listed.

In this experiment the test system is BDF1 mice, P388 leukemia ip, median survival T/C. Briefly: NCI In Vivo Anticancer Drug Screen. Data for tumor model P388 Leukemia (intraperitoneal) in B6D2F1 (BDF1) mice. The note with it: endpoint: median survival time, higher = longer survival. In a few lines:
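Vehicle-dosed animals serve as the reference; survival of compound-dosed, tumour-implanted mice is divided by it.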

Where [1] appears, read: dose: 50.0 mg/kg/injection, schedule: Q01DX009 (ip), vehicle: Klucel (hydroxypropylcellulose) (HPC).
[2] abbreviates: dose: 100.0 mg/kg/injection, schedule: Q01DX009 (ip), vehicle: Klucel (hydroxypropylcellulose) (HPC).
Setting [3] is: dose: 100.0 mg/kg/injection, schedule: Q04DX003 (ip), vehicle: Klucel (hydroxypropylcellulose) (HPC).
Where [4] appears, read: dose: 200.0 mg/kg/injection, schedule: Q01DX009 (ip), vehicle: Klucel (hydroxypropylcellulose) (HPC).
Setting [5] is: dose: 200.0 mg/kg/injection, schedule: Q04DX003 (ip), vehicle: Klucel (hydroxypropylcellulose) (HPC).
Where [6] appears, read: dose: 400.0 mg/kg/injection, schedule: Q04DX003 (ip), vehicle: Klucel (hydroxypropylcellulose) (HPC).
Setting [7] is: dose: 100.0 mg/kg/injection, schedule: Q04DX003 (ip), vehicle: saline sonified.
The mark [8] stands for this setting: dose: 200.0 mg/kg/injection, schedule: Q04DX003 (ip), vehicle: saline sonified.
Where [9] appears, read: dose: 25.0 mg/kg/injection, schedule: Q01DX009 (ip), vehicle: saline with Tween-80.
The mark [10] stands for this setting: dose: 50.0 mg/kg/injection, schedule: Q01DX009 (ip), vehicle: saline with Tween-80.
Setting [11] is: dose: 100.0 mg/kg/injection, schedule: Q01DX009 (ip), vehicle: saline with Tween-80.
Where [12] appears, read: dose: 12.5 mg/kg/injection, schedule: Q01DX009 (ip), vehicle: Klucel (hydroxypropylcellulose) (HPC).
Where [13] appears, read: dose: 25.0 mg/kg/injection, schedule: Q01DX009 (ip), vehicle: Klucel (hydroxypropylcellulose) (HPC).
The mark [14] stands for this setting: dose: 100.0 mg/kg/injection, schedule: Q04DX003 (ip), vehicle: saline.
[15] abbreviates: dose: 200.0 mg/kg/injection, schedule: Q04DX003 (ip), vehicle: saline.
Setting [16] is: dose: 200.0 mg/kg/injection, schedule: Q01DX009 (ip), vehicle: saline with Tween-80.

`Cc1ccc(/C=C2/C=C(c3ccccc3)OC2=O)cc1`: the T/C is 109 % of control under setting [1]; 109 % of control under setting [2]; 100 % of control under setting [3]; 100 % of control under setting [4]; 95 % of control under setting [5]; 90 % of control under setting [6].

Turning to `CCCCCCCCCCCCOc1ccccc1C=O`, the T/C (dose: 50.0 mg/kg/injection, schedule: Q04DX003 (ip), vehicle: Klucel (hydroxypropylcellulose) (HPC)) is 104 % of control; the T/C under setting [3] is 100 % of control; the T/C under setting [7] was 118 % of control; the T/C under setting [5] was 118 % of control; the T/C under setting [8] was 122 % of control; the T/C under setting [6] is 109 % of control.

With `NC(=S)N/N=C/c1ccc(NC(=O)c2ccccc2C(=O)O)cc1`, the T/C under setting [9] was 95 % of control, the T/C under setting [10] is 87 % of control and the T/C under setting [11] was 100 % of control.

Take `C[n+]1c2ccccc2c(Nc2ccc(NS(=O)(=O)CCCCN=C(N)N)cc2)c2ccc(N)cc21`: the T/C reads like this: (dose: 3.0 mg/kg/injection, schedule: Q01DX009 (ip), vehicle: water) 205 % of control; (dose: 6.0 mg/kg/injection, schedule: Q01DX009 (ip), vehicle: water) 116 % of control.

Take `Cn1c2nc(=O)n(-c3ccccc3)c(=O)c-2nc2ccccc21`: the T/C runs as follows: (dose: 12.5 mg/kg/injection, schedule: Q01DX009 (ip), vehicle: saline with Tween-80) 95 % of control; under setting [9], 104 % of control; under setting [10], 91 % of control and 95 % of control.

For the compound `ClC1CC[N-]CC1.ClC1CC[N-]CC1.[Cl][Pt+2]([Cl])([Cl])[Cl]`, the T/C is 182 % of control under setting [12], 221 % of control under setting [13] and 115 % of control under setting [1].

`Cc1cc(N(CCC(=O)O)CCC(=O)O)ccc1/C=C/c1ccc2cc(Cl)ccc2[n+]1C`: the T/C reads like this: (dose: 12.5 mg/kg/injection, schedule: Q01DX001 (ip), vehicle: saline with Tween-80) 96 % of control; (dose: 25.0 mg/kg/injection, schedule: Q01DX001 (ip), vehicle: saline with Tween-80) 96 % of control; (dose: 50.0 mg/kg/injection, schedule: Q01DX001 (ip), vehicle: saline with Tween-80) 94 % of control.

As to `Cc1ncc(CO)c(C2NOCc3nscc32)c1O` (stereo not given), the T/C is 95 % of control (dose: 7.0 mg/kg/injection, schedule: Q01DX009 (ip), vehicle: Klucel (hydroxypropylcellulose) (HPC)); 104 % of control (dose: 11.25 mg/kg/injection, schedule: Q01DX001 (ip), vehicle: saline); 95 % of control (dose: 14.0 mg/kg/injection, schedule: Q01DX009 (ip), vehicle: Klucel (hydroxypropylcellulose) (HPC)); 95 % of control (dose: 19.0 mg/kg/injection, schedule: Q04DX003 (ip), vehicle: saline); 104 % of control (dose: 22.5 mg/kg/injection, schedule: Q01DX001 (ip), vehicle: saline); 100 % of control (dose: 45.0 mg/kg/injection, schedule: Q01DX001 (ip), vehicle: saline). The T/C (dose: 45.0 mg/kg/injection, schedule: Q04DX003 (ip), vehicle: saline) was 90 % of control.

`CC1SC(N)=NC1=O` (stereo not given): the T/C was 100 % of control under setting [2]; 109 % of control under setting [3]; 109 % of control under setting [4]; 86 % of control under setting [5]; 100 % of control (dose: 400.0 mg/kg/injection, schedule: Q01DX009 (ip), vehicle: Klucel (hydroxypropylcellulose) (HPC)); 109 % of control under setting [6].

With `COc1ccc(C2NC(=O)NC2=O)cc1OC` (stereo not given), the T/C by setting is: (dose: 50.0 mg/kg/injection, schedule: Q01DX001 (ip), vehicle: saline sonified) 100 % of control; (dose: 100.0 mg/kg/injection, schedule: Q01DX001 (ip), vehicle: saline sonified) 100 % of control; (dose: 200.0 mg/kg/injection, schedule: Q01DX001 (ip), vehicle: saline sonified) 100 % of control.

On to `c1ccc(C(NC2CC3CCC2C3)c2ccccc2)cc1` (stereo not given), for which the T/C is 108 % of control (dose: 50.0 mg/kg/injection, schedule: Q04DX003 (ip), vehicle: saline); 108 % of control under setting [14]; 108 % of control under setting [15].

Take `CCSc1ccc2c(c1)N(CCCN1CCN(C)CC1)c1ccccc1S2`: the T/C is, setting by setting: (dose: 15.0 mg/kg/injection, schedule: Q04DX003 (ip), vehicle: saline) 110 % of control; under setting [9], 112 % of control; (dose: 25.0 mg/kg/injection, schedule: Q01DX009 (ip), vehicle: saline) 92 % of control; (dose: 30.0 mg/kg/injection, schedule: Q04DX003 (ip), vehicle: saline) 120 % of control; under setting [10], 91 % of control; (dose: 50.0 mg/kg/injection, schedule: Q01DX009 (ip), vehicle: saline) 103 % of control. Besides, the T/C was 90 % of control under setting [14]; 105 % of control (dose: 120.0 mg/kg/injection, schedule: Q04DX003 (ip), vehicle: saline); 150 % of control under setting [15].

Take `CCC(=O)/C(=C\c1ccccc1Cl)C(C)=O`: the T/C is, setting by setting: under setting [10], 108 % of control; under setting [11], 116 % of control; under setting [16], 120 % of control.

`COC(=O)/C=C/CCBr`: the T/C reads like this: (dose: 100.0 mg/kg/injection, schedule: Q04DX002 (ip), vehicle: saline with Tween-80) 104 % of control; (dose: 200.0 mg/kg/injection, schedule: Q04DX002 (ip), vehicle: saline with Tween-80) 109 % of control; (dose: 400.0 mg/kg/injection, schedule: Q04DX002 (ip), vehicle: saline with Tween-80) 114 % of control.

Take `COC1=C(C)C(=O)C2=C(C1=O)C1C3CC4=C(C(=O)C(OC)=C(C)C4=O)C(CNC(=O)C(C)=O)N3C(C#N)C(C2)N1C` (stereo not given): the T/C was 151 % of control (dose: 0.31 mg/kg/injection, schedule: Q01DX009 (ip), vehicle: Klucel (hydroxypropylcellulose) (HPC)); 183 % of control (dose: 0.62 mg/kg/injection, schedule: Q01DX009 (ip), vehicle: Klucel (hydroxypropylcellulose) (HPC)); 159 % of control (dose: 1.25 mg/kg/injection, schedule: Q01DX009 (ip), vehicle: Klucel (hydroxypropylcellulose) (HPC)).

Take `CCCCCCCCCCCCCCCCNc1cccc2ccccc12`: the T/C is 86 % of control under setting [7]; 104 % of control under setting [8]; 95 % of control (dose: 400.0 mg/kg/injection, schedule: Q04DX003 (ip), vehicle: saline sonified).

Consider `NC(=O)C(O)C(Br)(Br)Br` (stereo not given), for which the T/C (dose: 100.0 mg/kg/injection, schedule: Q01DX009 (ip), vehicle: saline) is 116 % of control; the T/C under setting [14] is 95 % of control; the T/C (dose: 200.0 mg/kg/injection, schedule: Q01DX009 (ip), vehicle: saline) was 108 % of control; the T/C under setting [15] was 104 % of control; the T/C (dose: 400.0 mg/kg/injection, schedule: Q04DX003 (ip), vehicle: saline) was 100 % of control.

`O=[N+]([O-])C1(Cl)CCCCC1`: the T/C by setting is: (dose: 6.25 mg/kg/injection, schedule: Q01DX009 (ip), vehicle: Klucel (hydroxypropylcellulose) (HPC)) 112 % of control; under setting [12], 108 % of control; under setting [13], 102 % of control and 105 % of control.

Take `O=C(Nc1ccccc1F)C12CC3CC(CC(C3)C1)C2`: the T/C is, setting by setting: under setting [10], 92 % of control; under setting [11], 96 % of control; under setting [16], 96 % of control.

Regarding `CCCCCCCC(O)CCCC` (stereo not given), the T/C is, setting by setting: under setting [3], 87 % of control; under setting [5], 91 % of control; under setting [6], 91 % of control.

Values taken from PubChem BioAssay AID328 (DTP/NCI, 2004).
